According to PMC6933707, “Palmitoylethanolamide counteracts substance P-induced mast cell activation in vitro by stimulating diacylglycerol lipase activity” (Journal of Neuroinflammation, 2019):

How the values were obtained:
human recombinant DAGL-α = target: T1, human recombinant DAGL-α (Homo sapiens, UniProt Q9Y4D2); assay: DAGL-α enzyme activity assay (COS-7 membranes; radiolabelled substrate or 2-AG by LC-MS); assay type: biochemical
T1 construct: expressed in transfected cells; host or cells: COS-7
T1 sequence (Q9Y4D2 1-1042): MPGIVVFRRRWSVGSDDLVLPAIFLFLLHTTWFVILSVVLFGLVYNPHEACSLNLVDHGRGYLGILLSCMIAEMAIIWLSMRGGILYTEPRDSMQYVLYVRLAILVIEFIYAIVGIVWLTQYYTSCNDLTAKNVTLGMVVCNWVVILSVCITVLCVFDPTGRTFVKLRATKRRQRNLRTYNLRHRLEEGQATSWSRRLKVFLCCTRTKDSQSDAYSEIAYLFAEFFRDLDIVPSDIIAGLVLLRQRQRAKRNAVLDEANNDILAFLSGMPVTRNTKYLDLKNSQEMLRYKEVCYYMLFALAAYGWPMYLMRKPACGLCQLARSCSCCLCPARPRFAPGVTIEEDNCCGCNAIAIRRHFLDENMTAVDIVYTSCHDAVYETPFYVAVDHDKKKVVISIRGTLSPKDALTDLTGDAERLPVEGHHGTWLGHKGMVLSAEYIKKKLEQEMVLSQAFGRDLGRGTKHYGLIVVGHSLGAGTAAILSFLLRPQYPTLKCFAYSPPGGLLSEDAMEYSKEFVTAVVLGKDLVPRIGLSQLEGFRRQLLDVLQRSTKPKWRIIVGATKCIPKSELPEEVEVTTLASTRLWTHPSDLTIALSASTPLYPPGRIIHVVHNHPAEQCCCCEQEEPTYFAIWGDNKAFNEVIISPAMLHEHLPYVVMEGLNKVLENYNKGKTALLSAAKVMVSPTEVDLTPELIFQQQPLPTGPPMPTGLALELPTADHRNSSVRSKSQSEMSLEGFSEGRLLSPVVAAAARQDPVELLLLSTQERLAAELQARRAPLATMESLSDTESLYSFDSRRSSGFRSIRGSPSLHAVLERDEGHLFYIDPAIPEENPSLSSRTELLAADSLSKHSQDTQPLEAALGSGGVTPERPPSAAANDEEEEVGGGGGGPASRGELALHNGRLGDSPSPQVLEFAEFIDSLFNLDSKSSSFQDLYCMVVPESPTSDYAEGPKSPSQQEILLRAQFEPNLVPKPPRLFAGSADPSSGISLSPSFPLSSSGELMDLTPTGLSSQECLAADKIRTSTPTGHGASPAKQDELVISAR
Description: DAGL-α enzyme activity was assessed as previously reported by using membrane preparations (50 μg of protein) obtained from COS-7 cells overexpressing the human recombinant DAGL-α enzyme, and 1-[^14C]oleoyl-2-arachidonoylglycerol (1.0 mCi/mmol, 25 μM, synthesized as previously reported, as substrate in the presence of vehicle or increasing concentrations of PEA (0.1–25 μM) in Tris-HCl 50 mM pH 7.4. After the incubation (20 min at 37 °C), lipids were extracted with two volumes of CHCl3/CH3OH (2:1, v/v). The organic extracts, lyophilized under vacuum, were used to quantify the levels of 2-AG by LC-APCI-MS (as described above), or purified by using TLC on silica on polypropylene plates eluted in CHCl3/CH3OH/NH4OH (85:15:0.1%, v/v) as the eluting solvent. Bands corresponding to [^14C]-oleic acid were cut and their radioactivity was measured by using Liquid Scintillation Analyzer (TRI-carb 2100TR). Data were expressed as % of DAGL-α stimulation. To quantify the levels of 2-AG by LC-APCI-MS a non-radiolabeled 1-oleoyl-2-arachidonoylglycerol substrate was used.

RBL-2H3 cells [1] = assay: Histamine release assay (ELISA); assay type: cell-based, rat
Description: RBL-2H3 cells were plated into 24-well culture dishes at a cell density of 2 × 10^5 cells per well, or into 6-well culture dishes at a cell density of 9 × 10^5 cells per well, for 1 day at 37 °C in 5% CO2 atmosphere. After 1 day, RBL-2H3 cells were stimulated with SP (10 μM) or vehicle (water) and incubated for 15 min at 37 °C in 5% CO2 atmosphere.
SP-stimulated RBL-2H3 cells (2 × 10^5 cells/well) were treated with PEA (10 μM) or vehicle (methanol) for 15 min at 37 °C in 5% CO2 atmosphere. SP-stimulated RBL-2H3 cells were also treated with a CB2 antagonist, AM630 (0.1 μM), in the presence and absence of PEA (10 μM), or JWH133 (0.1 μM) (a CB2 synthetic agonist), and incubated for the indicated time. SP-stimulated RBL-2H3 cells were also treated with 2-AG (0.1 and 1 μM), or co-treated with PEA (0.1 μM) and 2-AG (0.1 μM), and incubated for the indicated time. SP-stimulated RBL-2H3 cells were also co-treated with PEA (10 μM) and OMDM188 (10 μM) (a DAGL inhibitor), and incubated for the indicated time. After 15 min, the supernatants were collected and the amounts of secreted histamine were measured by using a histamine ELISA kit according to the manufacturer’s instructions (Abnova) and by using a reader GENios Pro (Tecan). Data were expressed as nanograms per milliliter of histamine.

RBL-2H3 cells [2] = assay: Quantitative real-time PCR of PEA/2-AG receptors and metabolic enzymes; assay type: cell-based, rat; settings: cells stimulated 15 min with SP 10 μM or PEA 10 μM or both, vs unstimulated
Source text: The mRNA expression of PEA target genes (Cnr1, Cnr2, Trpv1, Ppara, and Gpr55), as well as PEA and 2-AG biosynthetic (N-acyl phosphatidylethanolamine-specific phospholipase D, Napepld, Dagla and Daglb) and catabolic enzyme genes (fatty acid amide hydrolase, Faah; N-acylethanolamine-hydrolyzing acid amidase, Naaa; and monoacylglycerol lipase, Mgl), was studied by comparison of transcriptional expression in unstimulated RBL-2H3 cells (plated on 100 mm diameter Petri dishes) vs. the expression of these targets and enzymes in RBL-2H3 cells treated with PEA (10 μM), or stimulated with SP (10 μM) in the presence and absence of PEA (10 μM), for 15 min at 37 °C in 5% CO2 atmosphere. Total RNA was purified, quantified and reverse transcribed as previously reported. For each target, all mRNA sequences were aligned and common primers were designed (Table 1). Quantitative real-time PCR was performed by an iCycler-iQ5 in a 20 μl reaction mixture using 20 ng of cDNA. Assays were performed in quadruplicate (maximum ΔCt of replicate samples < 0.5). Optimized primers for SYBR-green analysis and optimum annealing temperatures were designed by the Allele-Id software version 7.0 (Biosoft International) and were synthesized (HPLC-purification grade) by MWG-Biotech. […] Results were expressed as fold expression compared with a reference condition (2^^−∆∆ct formula).

Question: How did the “elevation of levels of 2-AG produced by DAGL-α (LC-MS)” value (human recombinant DAGL-α; PEA 25 μM + substrate, compared to membrane preparations incubated alone (no substrate, no PEA)) turn out when CCCCCCCCCCCCCCCC(=O)NCCO [PEA, Palmitoylethanolamide] was run?
Answer: 5.6 fold

Question: What about the “elevation of levels of 2-AG produced by DAGL-α (LC-MS)” value (human recombinant DAGL-α; PEA 25 μM, compared to membrane preparations incubated with the substrate 1-oleoyl-2-arachidonoylglycerol and without PEA) of the same molecule?
Answer: 1.4 fold

Question: And the EC50 (human recombinant DAGL-α; membranes of COS-7 cells over-expressing DAGL-α, 20 min 37 °C, read-out: EC50, stimulation of DAGL-α activity)?
Answer: 17.3 ± 2.35 µM

Question: What about the histamine release (RBL-2H3 cells [1]; SP (10 μM)-stimulated cells, compound 0.1 μM, 15 min, vs SP + vehicle) of the same molecule?
Answer: comparable

Question: And the histamine release (RBL-2H3 cells [1]; SP (10 μM)-stimulated cells, compound 10 μM, 15 min, vs SP + vehicle)?
Answer: inhibited the release of histamine

Question: And the histamine release (RBL-2H3 cells [1]; SP-stimulated cells co-treated with PEA 0.1 μM and 2-AG 0.1 μM, 15 min)?
Answer: able to reduce

Question: What about the histamine release (RBL-2H3 cells [1]; SP-stimulated cells co-treated with PEA 10 μM and AM630 0.1 μM, vs SP + vehicle or SP + AM630) of the same molecule?
Answer: comparable

Question: And the histamine release (RBL-2H3 cells [1]; substance alone 10 μM, 15 min, vs vehicle-treated cells)?
Answer: No effect

Question: And the “mRNA expression of Cnr2, Napepld, Naaa, Daglb, Faah and Mgl” value (RBL-2H3 cells [2])?
Answer: no statistically significant change
